Experiments:
[1] = tested on: KG1a leukemic cells; assay: Cell cycle analysis with propidium iodide; assay type: cell-based, human; conditions: 5 and 10 nM, 48 hours
[2] = Bone marrow toxicity, serial complete blood counts; assay type: in vivo, CD1 mice; conditions: 25 mg/kg subcutaneously every other day for 4 weeks
Description: Eight week-old sex matched CD1 mice (Jackson Laboratory, Bar Harbor, Me.) were treated with CA4P at 25 mg/kg subcutaneously every other day for 4 weeks.

## COc1ccc(/C=C\c2cc(OC)c(OC)c(OC)c2)cc1OP(=O)(O)O [CA4P, combretastatin A-4 phosphate]
[1]
  cell cycle effect: G2/M arrest
[2]
  WBC and absolute neutrophil count: slight decrease

Reference: patent publication US20090264382A1, “Methods for Treating Hematopoietic Neoplasms” (priority 2007, published 2009)
